Reference: paper PMC3914206

Assays:
panel of 442 kinases [1] = target: T1, panel of 442 kinases (Homo sapiens, UniProt Q59H18); type: binding; conditions: kinase TNNI3K; compound concentration 10 µM
T1 construct: purchased KINOMEscan
T1 sequence (Q59H18 1-835): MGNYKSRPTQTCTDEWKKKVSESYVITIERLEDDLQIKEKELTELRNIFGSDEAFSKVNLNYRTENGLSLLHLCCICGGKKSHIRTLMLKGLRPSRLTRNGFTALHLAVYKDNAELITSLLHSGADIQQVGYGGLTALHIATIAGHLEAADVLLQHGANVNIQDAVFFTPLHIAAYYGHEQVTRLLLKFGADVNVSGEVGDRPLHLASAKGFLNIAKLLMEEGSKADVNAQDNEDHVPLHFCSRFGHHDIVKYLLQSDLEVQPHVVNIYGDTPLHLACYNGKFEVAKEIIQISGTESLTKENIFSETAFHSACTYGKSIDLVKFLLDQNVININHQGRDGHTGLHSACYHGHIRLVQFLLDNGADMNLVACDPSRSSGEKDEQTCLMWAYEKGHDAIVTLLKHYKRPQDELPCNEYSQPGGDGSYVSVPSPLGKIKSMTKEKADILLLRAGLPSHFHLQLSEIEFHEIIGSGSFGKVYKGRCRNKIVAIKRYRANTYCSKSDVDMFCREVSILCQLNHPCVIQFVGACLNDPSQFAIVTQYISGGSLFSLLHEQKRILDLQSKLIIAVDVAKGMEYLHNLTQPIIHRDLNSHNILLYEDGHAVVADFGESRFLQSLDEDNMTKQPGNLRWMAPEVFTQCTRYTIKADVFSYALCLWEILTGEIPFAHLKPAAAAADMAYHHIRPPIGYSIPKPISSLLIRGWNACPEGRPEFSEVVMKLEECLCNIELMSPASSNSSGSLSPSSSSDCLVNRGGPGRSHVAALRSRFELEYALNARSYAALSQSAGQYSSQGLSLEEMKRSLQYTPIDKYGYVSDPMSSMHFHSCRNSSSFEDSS
Excerpt: (§1) We assessed the selectivity of members of this scaffold using the KINOMEscan methodology across a near comprehensive panel of 442 kinases [[18,27]].

panel of 442 kinases [2] = target: T2, panel of 442 kinases (Homo sapiens, UniProt Q12852); type: binding; conditions: Compound Concentration 10 µM
T2 construct: purchased KINOMEscan
T2 sequence (Q12852 1-859): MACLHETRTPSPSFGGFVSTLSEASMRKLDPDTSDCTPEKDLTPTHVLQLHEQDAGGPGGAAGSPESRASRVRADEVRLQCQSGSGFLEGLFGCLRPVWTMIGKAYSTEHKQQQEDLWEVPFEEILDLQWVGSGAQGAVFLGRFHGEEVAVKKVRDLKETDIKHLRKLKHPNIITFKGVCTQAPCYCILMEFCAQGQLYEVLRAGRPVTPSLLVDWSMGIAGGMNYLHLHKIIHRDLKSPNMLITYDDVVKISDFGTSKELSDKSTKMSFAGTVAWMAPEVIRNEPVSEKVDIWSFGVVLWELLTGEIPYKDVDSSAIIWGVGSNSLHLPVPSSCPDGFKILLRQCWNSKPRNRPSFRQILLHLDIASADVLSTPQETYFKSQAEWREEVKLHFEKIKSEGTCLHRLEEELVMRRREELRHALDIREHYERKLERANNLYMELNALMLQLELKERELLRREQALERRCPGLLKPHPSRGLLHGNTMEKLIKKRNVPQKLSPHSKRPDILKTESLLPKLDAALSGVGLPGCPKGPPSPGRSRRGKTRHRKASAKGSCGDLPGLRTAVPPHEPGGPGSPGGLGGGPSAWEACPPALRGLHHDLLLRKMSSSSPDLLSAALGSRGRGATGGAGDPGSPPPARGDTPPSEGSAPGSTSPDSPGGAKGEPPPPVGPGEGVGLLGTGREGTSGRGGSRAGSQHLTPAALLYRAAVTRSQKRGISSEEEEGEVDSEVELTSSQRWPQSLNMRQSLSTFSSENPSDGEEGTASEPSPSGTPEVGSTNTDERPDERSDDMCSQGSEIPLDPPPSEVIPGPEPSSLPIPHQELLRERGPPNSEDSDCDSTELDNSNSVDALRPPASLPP
Excerpt: as §1

Row | Compound | % Ctrl, TNNI3K (panel of 442 kinases [1]) | KINOMEscan: DLK (panel of 442 kinases [2])
1 | COc1cc(C(=O)N2CCC(N3CCN(C)CC3)CC2)ccc1Nc1ncc2c(n1)N(C)c1ccccc1C(=O)N2C [15 (LRRK2-IN-1)] | 100 % Ctrl | 81
2 | COc1cc(C(=O)N2CCC(N3CCN(C)CC3)CC2)ccc1Nc1ncc2c(n1)N1CCc3cccc(c31)C(=O)N2C [Compound 24] | 73 % Ctrl | 78
3 | COc1cc(C(=O)N2CCC(N3CCN(C)CC3)CC2)ccc1Nc1ncc2c(n1)N(C1CCCC1)c1ccccc1C(=O)N2C [Compound 25, 11-cyclopentyl-2-((2-methoxy-4-(4-(4-methylpiperazin-1-yl)piperidine-1-carbonyl)phenyl)amino)-5-methyl-5H-benzo[e]pyrimido[5,4-b][1,4]diazepin-6(11H)-one] | 82 % Ctrl | 62
4 | CCOc1cc(C(=O)N2CCC(N3CCN(C)CC3)CC2)ccc1Nc1ncc2c(n1)N(C1CCCC1)c1ccccc1C(=O)N2C [Compound 26] | 89 % Ctrl | 100
